# Experimental data: patent US20240076272A1, “Activators of Heme Regulated Inhibitor Kinase (HRI)” (The Brigham and Women`s Hospital, Inc., priority 2019, published 2024)
# Read-outs that look alike come from different tables or passages of the source.
# Legend:
# [1] = system: eIF2α phosphorylation (ATF-4 5′UTR luciferase reporter); test: surrogate eIF2α phosphorylation dual-luciferase reporter (DLR) assay; type: cell-based; conditions: F/R luciferase ratio normalized to DMSO wells (F/R=1); for fold induction at 1.25 µM: read-out: Fold stimulation of ATF-4 Surrogate eIF2α @ 1.25 μM; for fold induction at 5 µM: read-out: Fold stimulation of ATF-4 Surrogate eIF2α @ 5 μM
# Description: The dual luciferase expression vector and other plasmids used in the Examples provided herein have been previously reported (see e.g., Ziegeler et al, J. Biol. Chem. 285 (2010) 15408-15419). The dual luciferase surrogate eIF2α phosphorylation assay, has also been previously reported (see e.g., Chen et al, Nat. Chem. Biol. 7 (2011) 610-616). Briefly, a dual Renilla and Firefly luciferase mammalian reporter vector that transcribes both mRNAs from the same bi-directional enhancer/promoter complex was utilized for generation of surrogate eIF2α phosphorylation assay (see e.g., Ziegeler et al, J. Biol. Chem. 285 (2010) 15408-15419). Both mRNAs contained the same 90 nucleotide plasmid derived 5′UTR. In addition, 5′UTR of the Firefly luciferase open reading frame was fused in-frame to the 267 nucleotide ATF-4 5′UTR (see e.g., Chen et al, Nat. Chem. Biol. 7 (2011) 610-616).
# Cells expressing firefly and renilla luciferases were assayed with a dual glow luciferase assay kit, per manufacturer's instruction (Promega Inc., Madison, WI). The data calculations were carried out as the ratio of firefly to renilla luciferase signal (see e.g., Ziegeler et al, J. Biol. Chem. 285 (2010) 15408-15419). Dose-response curves were obtained, and triplicate data points were fitted to the logistical sigmoidal model using nonlinear least-squares regression performed in GraphPad Prism 6.
# All newly synthesized N,N′-disubstituted ureas were initially evaluated by testing in the surrogate eIF2α phosphorylation dual-luciferase reporter (DLR) assay (see e.g., Chen et al, Nat. Chem. Biol. 7 (2011) 610-616; and Ziegeler et al, J. Biol. Chem. 285 (2010) 15408-15419). Briefly, this assay takes advantage of the fact that activated HRI phosphorylates eIF2α which inhibits eIF2 guanine nucleotide exchange factor eIF2B, responsible for exchanging the GDP in the eIF2·GDP complex for GTP. The reduction in the recycling of eIF2·GDP into eIF2·GTP interferes with the formation of eIF2·GTP·Met-tRNAi ternary complex. […] These include mRNA coding for activating transcription factor 4 (ATF-4) (see e.g., Aktas et al, Oncotarget, 4 (2013) 1606-1617; Aktas et al, Oncotarget, 6 (2015) 6902-6914; and Aktas et al, Proc. Natl. Acad. Sci. U.S.A. 95 (1998) 8280-8285).
# In the present assay, firefly (F) luciferase mRNA was fused to the 5′UTR of ATF-4 mRNA that had multiple uORFs, while renilla (R) luciferase mRNA was fused to a 5′UTR lacking any uORFs. Agents that reduce the amount of the eIF2·GTP·Met-tRNAi ternary complex, such as N,N′-disubstituted ureas that activate HRI, increase F luciferase expression while reducing the R luciferase expression, resulting in an increased F/R luciferase ratio. The ureas of the present application were tested at 10 μM, 5 μM, 2.5 μM, and 1.25 μM concentrations in 96-well assay plates (see e.g., Chen et al, Nat. Chem. Biol. 7 (2011) 610-616; and Bai et al, ChemBioChem, 14 (2013) 1255-1262). The activity scores as the F/R ratios were calculated for every compound-treated well and normalized to F/R ratio of vehicle-treated (DMSO) wells in the same plate, arbitrarily set at 1 (F/R=1). Data obtained in the surrogate dual-luciferase eIF2α phosphorylation (DLR) assay for the series of 1-phenyl-3/4-(4-trifluorometyl) phenoxy-cycloalkyl)ureas (4-CF3-ΦcAlkΦUs) and 1-phenyl-3-(5-(4-(trifluoromethyl) phenoxy)pyrimidin-2-yl)ureas (4-CF3-ΦOPyΦUs) described herein are shown in Tables 1-2.
# [2] = system: human melanoma CRL-2813 cells; test: sulforhodamine B (SRB) cell proliferation assay; type: cell-based; conditions: 5 days, read-out: IC50 (concentration that inhibits growth of human melanoma CRL-2813 cells by 50%)
# Description: Cells were seeded in 96-well plates and maintained for 5 days in the presence of 0.5 μM to 20 μM of individual compound, and cell proliferation was measured by the sulforhodamine B (SRB) assay according to previous reports (see e.g., Palakurthi et al, Cancer Res. 60 (2000) 2919-2925): briefly, at the end of a 5-day treatment, cells were fixed in 10% cold trichloroacetic acid. Cell number was estimated by measuring the remaining bound dye of sulforhodamine B after washing. The percentage of growth was calculated by using the equation: 100×[(T-T0)/(C-T0)], where T and C represent the absorbance in treated and control cultures at Day 5, and T0 at time zero, respectively. If T was less than T0, cell death had occurred and was calculated from 100×[(T-T0)/T0].
# All 4-CF3-ΦOcAlkΦUs were tested in the sulforhodamine B (SRB) cell proliferation assay to establish the concentrations that inhibit human melanoma CRL-2813 cells growth by 50% (IC50) (see Table 1). This activity reflects a combined effect of membrane permeability and overall anti-proliferative effects that include on target and off-target effects.
compound,measurement,setting,value
"Cc1ccc(F)cc1NC(=O)N[C@H]1CC[C@H](Oc2ccc(C(F)(F)F)cc2)C1 [Compound 7-V, 1-(5-Fluoro-2-methylphenyl)-3-((1S,3S)-3-(4-(trifluoromethyl)phenoxy)cyclopentyl)urea]",fold induction at 1.25 µM,[1],1.4 ± 0.1
same,fold induction at 5 µM,[1],1.3 ± 0.4
same,IC50,"[2]; Homo sapiens, CRL2813, 120 h",8000 ± 2500 nM
same,melting point,,209.8 to 211.4 °C
"N#Cc1ccc(NC(=O)N[C@H]2CC[C@H](Oc3ccc(C(F)(F)F)cc3)CC2)c(F)c1 [Compound 8-VI, 1-(4-Cyano-2-fluorophenyl)-3-(trans-4-(4-(trifluoromethyl)phenoxy)cyclohexyl)urea]",fold induction at 1.25 µM,[1],2.4 ± 0.4
same,fold induction at 5 µM,[1],6.2 ± 1.3
same,IC50,"[2]; Homo sapiens, CRL2813, 120 h",1400 ± 300 nM
same,melting point,,221.6 to 223.6 °C
"O=C(Nc1ccc(F)c(F)c1)N[C@H]1C[C@H](Oc2ccc(C(F)(F)F)cc2)C1 [Compound 10-IV, 1-(3,4-difluorophenyl)-3-(trans-3-(4-(trifluoromethyl)phenoxy)cyclobutyl)urea]",fold induction at 1.25 µM,[1],2.2 ± 0.5
same,fold induction at 5 µM,[1],4.5 ± 0.4
same,IC50,"[2]; Homo sapiens, CRL2813, 120 h",5500 ± 700 nM
same,melting point,,179.9 to 182 °C
"O=C(Nc1ccc(F)c(F)c1)N[C@H]1CC[C@H](Oc2ccc(C(F)(F)F)cc2)C1 [Compound 10-V, 1-(3,4-Difluorophenyl)-3-((1S,3S)-3-(4-(trifluoromethyl)phenoxy)cyclopentyl)urea]",fold induction at 1.25 µM,[1],0.9 ± 0.2
same,fold induction at 5 µM,[1],3.5 ± 0.7
same,IC50,"[2]; Homo sapiens, CRL2813, 120 h",5200 ± 1500 nM
same,melting point,,175.4 to 177.5 °C
"O=C(Nc1ccc(F)c(F)c1)Nc1ncc(Oc2ccc(C(F)(F)F)cc2)cn1 [Compound 10-py, 1-(3,4-Difluorophenyl)-3-(5-(4-(trifluoromethyl)phenoxy)pyrimidin-2-yl) urea]",melting point,,224.8 to 226.2 °C
"N#Cc1cccc(NC(=O)N[C@H]2C[C@H](Oc3ccc(C(F)(F)F)cc3)C2)c1 [Compound 3-IV, 1-(3-Cyanophenyl)-3-(trans-3-(4-(trifluoromethyl)phenoxy)cyclobutyl)urea]",Fold stimulation of ATF-4 Surrogate eIF2α @ 1.25 μM,[1],1.6 ± 0.2 fold
same,fold induction at 1.25 µM,[1],1.6
same,fold induction at 5 µM,[1],3.5 ± 0.4
same,IC50,"[2]; Homo sapiens, CRL2813, 120 h",4900 nM
same,melting point,,181.1 to 182.3 °C
"O=C(Nc1cccc(C(F)(F)F)c1)N[C@H]1C[C@H](Oc2ccc(C(F)(F)F)cc2)C1 [Compound 2-IV, 1-(trans-3-(4-(Trifluoromethyl)phenoxy)cyclobutyl)-3-(3-(trifluoromethyl)phenyl)urea]",fold induction at 1.25 µM,[1],2.4 ± 0.6
same,fold induction at 5 µM,[1],6.5 ± 1.2
same,IC50,"[2]; Homo sapiens, CRL2813, 120 h",3400 ± 1000 nM
same,melting point,,171.8 to 174.6 °C
"N#Cc1cc(F)cc(NC(=O)N[C@H]2CC[C@H](Oc3ccc(C(F)(F)F)cc3)CC2)c1 [Compound 9-VI, 1-(3-Cyano-5-fluorophenyl)-3-(trans-4-(4-(trifluoromethyl)phenoxy)cyclohexyl)urea]",Fold stimulation of ATF-4 Surrogate eIF2α @ 1.25 μM,[1],3.7 ± 0.8 fold
same,Fold stimulation of ATF-4 Surrogate eIF2α @ 5 μM,[1],6.1 ± 1.1 fold
same,IC50,[2],1400 ± 300 nM
same,melting point,,219.8 to 222 °C
"O=C(Nc1cccc(C(F)(F)F)c1)N[C@H]1C[C@@H](Oc2ccc(C(F)(F)F)cc2)C1 [Compound 2-IVc, 1-(cis-3-(4-(Trifluoromethyl)phenoxy)cyclobutyl)-3-(3-(trifluoromethyl)phenyl)urea]",fold induction at 1.25 µM,[1],1.2 ± 0.3
same,fold induction at 5 µM,[1],6.2 ± 1.2
same,IC50,"[2]; Homo sapiens, CRL2813, 120 h",2600 ± 400 nM
same,melting point,,166.6 to 168.5 °C
"N#Cc1cccc(NC(=O)Nc2ncc(Oc3ccc(C(F)(F)F)cc3)cn2)c1 [Compound 3-py, 1-(3-Cyanophenyl)-3-(5-(4-(trifluoromethyl)phenoxy)pyrimidin-2-yl) urea]",melting point,,260.2 to 261.5 °C
O=C(Nc1cccc(C(F)(F)F)c1)N[C@H]1CC[C@H](Oc2ccc(C(F)(F)F)cc2)C1 [Compound 2-V],fold induction at 1.25 µM,[1],1.2 ± 0.4
same,fold induction at 5 µM,[1],7 ± 0.9
same,IC50,"[2]; Homo sapiens, CRL2813, 120 h",2500 ± 500 nM
same,melting point,,123.5 to 125.3 °C
"Cc1ccc(F)cc1NC(=O)N[C@H]1C[C@H](Oc2ccc(C(F)(F)F)cc2)C1 [Compound 7-IV, 1-(5-Fluoro-2-methylphenyl)-3-(trans-3-(4-(trifluoromethyl)phenoxy)cyclobutyl)urea]",fold induction at 1.25 µM,[1],0.7 ± 0.2
same,fold induction at 5 µM,[1],1.4 ± 0.1
same,IC50,"[2]; Homo sapiens, CRL2813, 120 h",> 10000 nM
same,melting point,,204.2 to 206 °C
"N#Cc1cc(NC(=O)N[C@H]2CC[C@H](Oc3ccc(C(F)(F)F)cc3)C2)cc(C(F)(F)F)c1 [Compound 1-V, 1-(3-Cyano-5-(trifluoromethyl)phenyl)-3-((1S,3S)-3-(4-(trifluoromethyl)phenoxy)cyclopentyl)urea]",Fold stimulation of ATF-4 Surrogate eIF2α @ 1.25 μM,[1],3.1 ± 0.7 fold
same,fold induction at 1.25 µM,[1],3.1
same,Fold stimulation of ATF-4 Surrogate eIF2α @ 5 μM,[1],8.3 ± 2.4 fold
same,fold induction at 5 µM,[1],8.3
same,IC50,"[2]; Homo sapiens, CRL2813, 120 h",1200 nM
same,melting point,,144.4 to 146.2 °C
"Cc1ccc(F)cc1NC(=O)Nc1ncc(Oc2ccc(C(F)(F)F)cc2)cn1 [Compound 7-py, 1-(5-Fluoro-2-methylphenyl)-3-(5-(4-(trifluoromethyl)phenoxy)pyrimidin-2-yl)urea]",melting point,,224.2 to 226.5 °C
N#Cc1cc(F)cc(NC(=O)N[C@H]2CC[C@H](Oc3ccc(C(F)(F)F)cc3)C2)c1 [Compound 4-V],fold induction at 1.25 µM,[1],2.4 ± 0.3
same,fold induction at 5 µM,[1],8 ± 2
same,IC50,"[2]; Homo sapiens, CRL2813, 120 h",1900 ± 1300 nM
same,melting point,,176.2 to 177.8 °C
"N#Cc1cc(F)cc(NC(=O)Nc2ncc(Oc3ccc(C(F)(F)F)cc3)cn2)c1 [Compound 4-py, 1-(3-Cyano-5-fluorophenyl)-3-(5-(4-(trifluoromethyl)phenoxy)pyrimidin-2-yl)urea]",melting point,,267.5 to 270 °C
"O=C(Nc1cccc(C(F)(F)F)c1)Nc1ncc(Oc2ccc(C(F)(F)F)cc2)cn1 [Compound 2-py, 1-(5-(4-(Trifluoromethyl)phenoxy)pyrimidin-2-yl)-3-(3-(trifluoromethyl)phenyl)urea]",melting point,,232.5 to 234.8 °C
"N#Cc1cc(NC(=O)Nc2ncc(Oc3ccc(C(F)(F)F)cc3)cn2)cc(C(F)(F)F)c1 [Compound 1-py, 1-(3-Cyano-5-(trifluoromethyl)phenyl)-3-(5-(4-(trifluoromethyl)phenoxy)pyrimidin-2-yl)urea]",melting point,,263.5 to 265.5 °C
